Experimental data from PMC11501026, “L-Arginine and asymmetric dimethylarginine (ADMA) transport across the mouse blood-brain and blood-CSF barriers: Evidence of saturable transport at both interfaces and CNS to blood efflux” (PLOS ONE, 2024).

Assay: self-inhibition, in situ perfusion: [^3H]-arginine with 100 μM unlabelled L-arginine
Format: in vivo, mouse
Conditions: male, Balb/c, mouse, other: in situ brain perfusion, with 100 µM unlabelled L-arginine, +100uM Un-labelled arginine, 10 mins, Balb/c ♂, 5ml/min
Description: Self-inhibition experiments were also performed. […] Cross-competition experiments were also performed.
The percentage change in the RTissue uptake values achieved in the absence or presence of an unlabelled inhibitor can be calculated by means of Eq 4.
%change=RTissue−RInhibition/RTissue×100 Eq 4
We define RInhibition as the RTissue uptake in the presence of an inhibitor in the artificial plasma.
A decrease in the uptake of radiolabelled solute in the presence of unlabelled inhibitor is indicative of a saturable influx transport system. Conversely, an increase in the uptake of radiolabelled solute in the presence of unlabelled inhibitor is indicative of a saturable efflux transport system.

SMILES: OC[C@H]1O[C@@](CO)(O[C@H]2O[C@H](CO)[C@@H](O)[C@H](O)[C@H]2O)[C@@H](O)[C@@H]1O [[^14C]-sucrose, reference compound]
- Kp at 10 min (pellet, pellet: [14C] Sucrose, mean): 0.00699
- Kp at 10 min (pituitary gland, pituitary gland: [14C] Sucrose, mean): 0.151
- Kp at 10 min (pons, pons: [14C] Sucrose, mean): 0.0326
- Kp at 10 min (supernatant, supernatant: [14C] Sucrose, single mouse): 0.0159
